Test results reported in US20120301895A1, “METHODS OF MODULATING BINDING OF SON OF SEVENLESS TO PHOSPHATIDIC ACID AND IDENTIFYING COMPOUNDS THAT MODULATE SUCH BINDING” (THE RESEARCH FOUNDATION OF STATE UNIVERSITY OF NEW YORK, priority 2007, published 2012).

Legend:
[1] = system: MDA-MB-231 human breast cancer cells; conditions: Wolf et al. 2007; cited from earlier work
786-0 cells = experiment: Apoptosis in 786-O cells; type: cell-based, human
Protocol: Cell viability was determined by trypan blue exclusion. After various treatments, cells were harvested, washed, and treated with trypan blue at a concentration of 0.4% w/v. After 10 min, trypan blue uptake (dead cells) was determined by counting on a hemocytometer. […] The effect of honokiol on cell viability and cleavage of the caspase 3 substrate poly-(ADP-ribose) polymerase (“PARP”)—an indicator of apoptotic cell death—was examined in the MDA-MB-231 and 786-0 cells. The effect of honokiol on cell viability and PARP cleavage in 0.5% serum was examined after 4 hr and 24 hr honokiol treatment and in 10% serum after 24 hr honokiol treatment in the MDA-MB-231 cells.

PLD1 = molecular target: T1, PLD1 (Homo sapiens, UniProt Q13393); experiment: In vitro PLD activity, exogenous substrate assay, PLD1; type: biochemical; conditions: purified recombinant PLD1 with ARF-1, 30 min at 37° C.
T1 construct: made in house
T1 sequence (Q13393 1-1074): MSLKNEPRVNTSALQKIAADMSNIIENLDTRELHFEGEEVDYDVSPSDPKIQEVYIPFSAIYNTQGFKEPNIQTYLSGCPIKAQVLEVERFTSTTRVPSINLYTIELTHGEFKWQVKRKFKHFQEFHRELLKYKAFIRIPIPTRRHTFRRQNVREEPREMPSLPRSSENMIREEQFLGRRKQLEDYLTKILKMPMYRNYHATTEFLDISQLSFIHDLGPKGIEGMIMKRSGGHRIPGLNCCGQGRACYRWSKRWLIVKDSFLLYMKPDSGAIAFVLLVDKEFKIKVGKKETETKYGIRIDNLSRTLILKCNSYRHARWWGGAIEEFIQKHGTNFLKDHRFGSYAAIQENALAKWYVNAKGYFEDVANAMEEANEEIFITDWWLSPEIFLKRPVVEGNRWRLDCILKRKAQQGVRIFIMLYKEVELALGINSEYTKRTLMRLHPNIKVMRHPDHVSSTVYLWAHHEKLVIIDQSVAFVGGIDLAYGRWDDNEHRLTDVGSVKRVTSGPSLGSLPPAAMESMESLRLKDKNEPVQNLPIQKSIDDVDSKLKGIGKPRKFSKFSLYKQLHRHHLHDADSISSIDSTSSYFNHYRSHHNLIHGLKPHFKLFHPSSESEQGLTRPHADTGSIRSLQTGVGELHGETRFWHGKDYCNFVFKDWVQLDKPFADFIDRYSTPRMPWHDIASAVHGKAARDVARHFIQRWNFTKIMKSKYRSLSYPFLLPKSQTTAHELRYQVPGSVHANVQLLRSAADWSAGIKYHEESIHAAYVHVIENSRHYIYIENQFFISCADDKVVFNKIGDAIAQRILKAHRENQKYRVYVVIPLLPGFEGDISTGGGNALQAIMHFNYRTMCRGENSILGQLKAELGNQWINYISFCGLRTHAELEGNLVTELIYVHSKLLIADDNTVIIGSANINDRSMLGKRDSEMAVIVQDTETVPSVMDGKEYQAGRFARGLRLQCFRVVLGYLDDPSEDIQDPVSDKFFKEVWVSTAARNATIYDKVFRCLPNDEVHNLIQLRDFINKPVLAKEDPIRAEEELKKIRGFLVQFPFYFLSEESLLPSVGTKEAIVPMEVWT
Protocol: In FIG. 13A, MDA-MB-231 cells were plated as in FIGS. 12A-C and then shifted to either 10% serum or 0.5% serum overnight as indicated. Honokiol (20 μM) or control ethanol was then added for 4 hr as indicated, at which time the cells were harvested and the levels of PBt were determined as in FIGS. 12A-C. The experiment shown is representative of at least three independent experiments. In FIG. 13B, the effect of honokiol on the activity of PLD isoforms was measured using exogenous substrate assay as described previously (Henage et al., “Kinetic Analysis of a Mammalian Phospholipase D: Allosteric Modulation by Monomeric GTPases, Protein Kinase C, and Polyphosphoinositides,” J. Biol. Chem. 281:3408-17 (2006), which is hereby incorporated by reference in its entirety). […] The amount of background was determined and subtracted using a bovine serum albumin standard. […]
For in vivo PLD activity, cells were plated in 60 mm culture dishes in DMEM with 10% serum at a density that would allow them to grow to about 80% confluence after 2 days, then cells were shifted to DMEM containing 0.5% or 10% serum as indicated in the figure legends overnight. […] Briefly, PLD activity was measured by the release of [methyl-^3H] choline from [choline-methyl-^3H]dipalmitoyl-phosphatidylcholine. […]

[2] = system: B-cell chronic lymphocytic leukemia cells; conditions: Battle et al. 2005; cited from earlier work

## C=CCc1ccc(O)c(-c2ccc(O)c(CC=C)c2)c1 [honokiol, Honokiol]
[1]
  growth of MDA-MB-231 cells in mouse xenograft: suppress the growth
786-0 cells
  apoptosis: induced apoptosis
PLD1
  in vitro activity of PLD1: no significant effect
[2]
  apoptosis in B-CLL cells: induce caspase-dependent apoptosis
